# Results taken from ChEMBL document CHEMBL1201862, “PubChem BioAssay data set” (2004).
#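 1) Cells in 96-well plates. 2) Compound, 48 h, 5 concentrations. 3) Linear interpolation between surrounding doses. 4) Unreached endpoint = highest concentration. Here, GI50 denotes the concentration required for 50% inhibition of growth.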 Calls of active or inactive are those of the source. Rule as the data show it: active = GI50 up to about 1.1 µM and inactive = higher.
# Tests used:
# Assay in all cases: NCI tumour cell line growth inhibition, 48 h
# A549 = test system: A549
# EKVX = test system: EKVX
# UACC-257 = test system: UACC-257
# UACC-62 = test system: UACC-62
# NCI-H522 = test system: NCI-H522
# RXF 393 = test system: RXF 393
# SF-539 = test system: SF-539
# Hs-578T = test system: Hs-578T
# MOLT-4 = test system: MOLT-4
# HCT-116 = test system: HCT-116
# MDA-MB-231 = test system: MDA-MB-231
# HT-29 = test system: HT-29
# BT-549 = test system: BT-549
# MDA-N = test system: MDA-N
# SNB-19 = test system: SNB-19
# A498 = test system: A498
# MCF7 = test system: MCF7
# KM12 = test system: KM12
# NCI-H23 = test system: NCI-H23
# ACHN = test system: ACHN
# SK-MEL-2 = test system: SK-MEL-2
# SK-OV-3 = test system: SK-OV-3
# HOP-62 = test system: HOP-62
# CAKI-1 = test system: CAKI-1
# OVCAR-8 = test system: OVCAR-8
# NCI/ADR-RES = test system: NCI/ADR-RES
# SF-295 = test system: SF-295
# HCT-15 = test system: HCT-15
# U-251 = test system: U-251
# SR = test system: SR
# PC-3 = test system: PC-3
# HL-60 = test system: HL-60
# SNB-75 = test system: SNB-75
# Malme-3M = test system: Malme-3M
# COLO 205 = test system: COLO 205
# LOX IMVI = test system: LOX IMVI
# SF-268 = test system: SF-268
# IGROV-1 = test system: IGROV-1
# NCI-H226 = test system: NCI-H226
# SW-620 = test system: SW-620
# CCRF-CEM = test system: CCRF-CEM
# 786-0 = test system: 786-0
# OVCAR-5 = test system: OVCAR-5
# NCI-H460 = test system: NCI-H460
# TK-10 = test system: TK-10
# OVCAR-3 = test system: OVCAR-3
# SK-MEL-28 = test system: SK-MEL-28
# M14 = test system: M14
# MDA-MB-435 = test system: MDA-MB-435
# RPMI-8226 = test system: RPMI-8226
# HOP-92 = test system: HOP-92
# HCC 2998 = test system: HCC 2998
# OVCAR-4 = test system: OVCAR-4
# SK-MEL-5 = test system: SK-MEL-5
# UO-31 = test system: UO-31
# DU-145 = test system: DU-145
# SN12C = test system: SN12C
# K562 = test system: K562
smiles,measurement,setting,value
c1ccc(Nn2c(CCCCCCCCc3nnc(COc4ccccc4)n3Nc3ccccc3)nnc2COc2ccccc2)cc1,GI50,A549,11.8 µM (inactive)
same,GI50,EKVX,32.7 µM (inactive)
same,GI50,UACC-257,13.9 µM (inactive)
same,GI50,UACC-62,1.74 µM (inactive)
same,GI50,NCI-H522,16.1 µM (inactive)
same,GI50,RXF 393,48.5 µM (inactive)
same,GI50,SF-539,12.8 µM (inactive)
same,GI50,Hs-578T,72.8 µM (inactive)
same,GI50,MOLT-4,18 µM (inactive)
same,GI50,HCT-116,16.2 µM (inactive)
same,GI50,MDA-MB-231,20 µM (inactive)
same,GI50,HT-29,24.3 µM (inactive)
same,GI50,BT-549,58.5 µM (inactive)
same,GI50,MDA-N,11 µM (inactive)
same,GI50,SNB-19,36.9 µM (inactive)
same,GI50,A498,87.9 µM (inactive)
same,GI50,MCF7,11.5 µM (inactive)
CC(=O)c1ccc2c(c1)oc(=O)n2CCN(C)C,GI50,KM12,> 100 µM (inactive)
same,GI50,EKVX,> 100 µM (inactive)
same,GI50,UACC-257,> 100 µM (inactive)
same,GI50,NCI-H23,> 100 µM (inactive)
same,GI50,UACC-62,> 100 µM (inactive)
same,GI50,ACHN,> 100 µM (inactive)
same,GI50,SK-MEL-2,> 100 µM (inactive)
same,GI50,SK-OV-3,> 100 µM (inactive)
same,GI50,HOP-62,> 100 µM (inactive)
same,GI50,CAKI-1,> 100 µM (inactive)
same,GI50,OVCAR-8,> 100 µM (inactive)
same,GI50,NCI/ADR-RES,> 100 µM (inactive)
same,GI50,RXF 393,> 100 µM (inactive)
same,GI50,SF-295,> 100 µM (inactive)
same,GI50,SF-539,> 100 µM (inactive)
same,GI50,Hs-578T,51.6 µM (inactive)
same,GI50,HCT-15,> 100 µM
same,GI50,U-251,> 100 µM (inactive)
same,GI50,MOLT-4,> 100 µM (inactive)
same,GI50,SR,> 100 µM (inactive)
same,GI50,PC-3,> 100 µM (inactive)
same,GI50,HCT-116,> 100 µM (inactive)
same,GI50,HL-60,> 100 µM (inactive)
same,GI50,MDA-MB-231,> 100 µM (inactive)
same,GI50,HT-29,93.8 µM (inactive)
same,GI50,SNB-75,21.7 µM (inactive)
same,GI50,Malme-3M,2.02 µM (inactive)
same,GI50,BT-549,> 100 µM (inactive)
same,GI50,COLO 205,> 100 µM (inactive)
same,GI50,LOX IMVI,> 100 µM (inactive)
same,GI50,SF-268,> 100 µM (inactive)
same,GI50,IGROV-1,32.1 µM (inactive)
same,GI50,NCI-H226,> 100 µM (inactive)
same,GI50,SW-620,> 100 µM (inactive)
same,GI50,CCRF-CEM,> 100 µM (inactive)
same,GI50,786-0,> 100 µM (inactive)
same,GI50,OVCAR-5,> 100 µM (inactive)
same,GI50,NCI-H460,> 100 µM (inactive)
same,GI50,TK-10,> 100 µM (inactive)
same,GI50,A498,> 100 µM (inactive)
same,GI50,MCF7,> 100 µM (inactive)
same,GI50,OVCAR-3,> 100 µM (inactive)
same,GI50,SK-MEL-28,> 100 µM (inactive)
same,GI50,M14,> 100 µM (inactive)
same,GI50,MDA-MB-435,> 100 µM (inactive)
C=CCOC(C)(C)C1=CCC(C)CC1 (configuration not stated),GI50,A549,> 100 µM (inactive)
same,GI50,RPMI-8226,> 100 µM (inactive)
same,GI50,KM12,> 100 µM (inactive)
same,GI50,EKVX,> 100 µM (inactive)
same,GI50,UACC-257,> 100 µM (inactive)
same,GI50,NCI-H23,> 100 µM (inactive)
same,GI50,HOP-92,> 100 µM (inactive)
same,GI50,UACC-62,> 100 µM (inactive)
same,GI50,HCC 2998,> 100 µM (inactive)
same,GI50,ACHN,> 100 µM (inactive)
same,GI50,SK-OV-3,> 100 µM (inactive)
same,GI50,HOP-62,> 100 µM (inactive)
same,GI50,CAKI-1,> 100 µM (inactive)
same,GI50,OVCAR-8,> 100 µM (inactive)
same,GI50,NCI-H522,> 100 µM (inactive)
same,GI50,RXF 393,> 100 µM (inactive)
same,GI50,OVCAR-4,> 100 µM (inactive)
same,GI50,SF-295,> 100 µM (inactive)
same,GI50,SF-539,> 100 µM (inactive)
same,GI50,Hs-578T,> 100 µM (inactive)
same,GI50,HCT-15,> 100 µM
same,GI50,U-251,> 100 µM (inactive)
same,GI50,MOLT-4,> 100 µM (inactive)
same,GI50,SR,> 10 µM (inactive)
same,GI50,SK-MEL-5,> 100 µM (inactive)
same,GI50,PC-3,> 100 µM (inactive)
same,GI50,HCT-116,> 100 µM (inactive)
same,GI50,HL-60,> 100 µM (inactive)
same,GI50,HT-29,> 100 µM (inactive)
same,GI50,SNB-75,> 100 µM (inactive)
same,GI50,UO-31,> 100 µM (inactive)
same,GI50,DU-145,> 100 µM (inactive)
same,GI50,SN12C,> 100 µM (inactive)
same,GI50,Malme-3M,> 100 µM (inactive)
same,GI50,BT-549,> 100 µM (inactive)
same,GI50,COLO 205,> 100 µM (inactive)
same,GI50,SF-268,> 100 µM (inactive)
same,GI50,IGROV-1,> 100 µM (inactive)
same,GI50,MDA-N,> 100 µM (inactive)
same,GI50,SNB-19,> 100 µM (inactive)
same,GI50,SW-620,> 100 µM (inactive)
same,GI50,786-0,> 100 µM (inactive)
same,GI50,OVCAR-5,> 100 µM (inactive)
same,GI50,NCI-H460,> 100 µM (inactive)
same,GI50,TK-10,> 100 µM (inactive)
same,GI50,A498,> 100 µM (inactive)
same,GI50,MCF7,> 100 µM (inactive)
same,GI50,OVCAR-3,> 100 µM (inactive)
same,GI50,SK-MEL-28,> 100 µM (inactive)
same,GI50,M14,> 100 µM (inactive)
same,GI50,MDA-MB-435,> 100 µM (inactive)
Cc1ccc(-c2c(C#N)c(S)n(NS(=O)(=O)c3ccccc3)c(=O)c2C#N)cc1,GI50,A549,39.7 µM (inactive)
same,GI50,RPMI-8226,23.3 µM (inactive)
same,GI50,KM12,28 µM (inactive)
same,GI50,EKVX,31 µM (inactive)
same,GI50,UACC-257,61 µM (inactive)
same,GI50,NCI-H23,37.8 µM (inactive)
same,GI50,HOP-92,24.1 µM (inactive)
same,GI50,UACC-62,23.9 µM (inactive)
same,GI50,HCC 2998,47 µM (inactive)
same,GI50,ACHN,28.1 µM (inactive)
same,GI50,SK-MEL-2,43.8 µM (inactive)
same,GI50,SK-OV-3,66.5 µM (inactive)
same,GI50,CAKI-1,31.9 µM (inactive)
same,GI50,OVCAR-8,21.2 µM (inactive)
same,GI50,NCI/ADR-RES,13.2 µM (inactive)
same,GI50,NCI-H522,19.5 µM (inactive)
same,GI50,RXF 393,41.1 µM (inactive)
same,GI50,OVCAR-4,34.4 µM (inactive)
same,GI50,SF-295,34 µM (inactive)
same,GI50,SF-539,20.6 µM (inactive)
same,GI50,HCT-15,21.7 µM
same,GI50,U-251,24.8 µM (inactive)
same,GI50,MOLT-4,15.9 µM (inactive)
same,GI50,SR,15.1 µM (inactive)
same,GI50,SK-MEL-5,25 µM (inactive)
same,GI50,PC-3,23.5 µM (inactive)
same,GI50,HCT-116,26.9 µM (inactive)
same,GI50,HL-60,16.7 µM (inactive)
same,GI50,MDA-MB-231,26.1 µM (inactive)
same,GI50,SNB-75,42.2 µM (inactive)
same,GI50,UO-31,20.1 µM (inactive)
same,GI50,K562,33.6 µM (inactive)
same,GI50,DU-145,53.3 µM (inactive)
same,GI50,SN12C,27.9 µM (inactive)
same,GI50,Malme-3M,35.7 µM (inactive)
same,GI50,BT-549,28.2 µM (inactive)
same,GI50,COLO 205,38.5 µM (inactive)
same,GI50,LOX IMVI,28.5 µM (inactive)
same,GI50,IGROV-1,23.7 µM (inactive)
same,GI50,MDA-N,29.7 µM (inactive)
same,GI50,SNB-19,31.5 µM (inactive)
same,GI50,NCI-H226,17.9 µM (inactive)
same,GI50,SW-620,29 µM (inactive)
same,GI50,CCRF-CEM,9.1 µM (inactive)
same,GI50,786-0,29.6 µM (inactive)
same,GI50,OVCAR-5,65.9 µM (inactive)
same,GI50,NCI-H460,15.6 µM (inactive)
same,GI50,TK-10,21.4 µM (inactive)
same,GI50,A498,21.2 µM (inactive)
same,GI50,MCF7,28.6 µM (inactive)
same,GI50,OVCAR-3,49 µM (inactive)
same,GI50,SK-MEL-28,> 100 µM (inactive)
same,GI50,M14,29.9 µM (inactive)
same,GI50,MDA-MB-435,23 µM (inactive)
